According to patent publication US20220259235A1, “EGFR Inhibitor, Composition, and Preparation Method Therefor” (BETTA PHARMACEUTICALS CO., LTD, priority 2019, published 2022):
Read-outs that look alike come from different tables or passages of the source.

Columns and labels:
EGFR Δ19del/T790M/C797S = EGFR Δ19del/T790M/C797S (Homo sapiens, UniProt P00533, T790M/C797S, form not given); test: EGFR Δ19del/T790M/C797S kinase test (mobility shift, Caliper EZ Reader); type: biochemical; conditions: kinase enzymatic activity
Procedure: Mobility variation analysis was performed to determine the affinity of the compound for EGFRΔ19del/T790M/C797S. The enzymatic reaction scheme is as follows:
1. Prepare 1* kinase buffer as follows:
2. Preparation of compound concentration gradient: The test compound was tested with an initial concentration of 3000 nM or 100 nM, diluted in a 384 source plate to a 100% DMSO solution with 100-fold final concentration, and the compound is 3-fold diluted with Precision to 10 concentrations. A dispenser Echo 550 was used to transfer 250 nL 100-fold final concentration of the compound to the target plate OptiPlate-384F.
3. Prepare 2.5-fold final concentration of kinase solution with 1×Kinase buffer;
4. Add 10 μL of 2.5-fold final concentration of kinase solution to the compound well and the positive control well; add 10 μL of 1×Kinase buffer to the negative control well.
5. Centrifuge at 1000 rpm for 30 seconds, shake the reaction plate for well mixation, and then incubate at room temperature for 10 minutes.
6. Prepare a mixture of ATP and Kinase substrate at 5/3-fold final concentration with 1×Kinase buffer.
7. Add 15 μL mixture of 5/3-fold final concentration of ATP and substrate to start reaction.
8. Centrifuge the 384-well plate at 1000 rpm for 30 seconds, shake it well and then incubate it at room temperature for corresponding time.
9. Add 30 μL of stop detection solution to stop the kinase reaction, centrifuge at 1000 rpm for 30 seconds, shake it well.
10. Read conversion rate with Caliper EZ Reader.
% Inhibition=((Conversion%_max−Conversion%_sample)/(Conversion%_max−Conversion%_min))*100
Wherein: Conversion%_sample is the sample conversion rate reading; Conversion%_min: Mean value of negative control wells, representing the conversion rate reading of wells without enzymatic activity; Conversion%_max: Mean value of positive control wells, representing the conversion rate reading of wells without compound inhibition.
The dose-effect curve was fitted with concentration log value as X-axis and percentage inhibition rate as Y-axis. Log (inhibitor) vs. Response—Variable Slope of GraphPad Prism 5 was used to fit the dose-effect curve to obtain IC50 value of enzymatic activity for each compound.
The calculation formula is as Y=Bottom (Top−Bottom)/(1+10^((LogIC50−X)*HillSlope)).
As illustrated in examples, IC50 value is within the following range for the compound of the present invention: “A” represents “IC50≤1nM”; “B” represents “1 nM<IC50≤100nM”.

Ba/F3-L858R/T790M/C797S = Ba/F3-L858R/T790M/C797S (Homo sapiens, UniProt P00533, T790M/C797S/L858R, cells depend on it); test: Ba/F3-L858R/T790M/C797S cell proliferation assay (CellTiter Glo, 72 h); type: cell-based; conditions: CTG, read-out: BaF3 L858R/T790M/C797S IC50
Procedure: (§1) Cell line: Ba/F3 cells with stable overexpression of Δ19del/T790M/C797S or L858R/T790M/C797S mutant genes, named Ba/F3-Δ19del/T790M/C797S and Ba/F3-L858R/T790M/C797S, and A431 EGFR wild-type cell line.
(§2) RPMI 1640 and 10% FBS and 1% PS; _EM, 10% PBS and 1% PS
(§3) a) Dilute the test compound (20 mM stock solution) to 10 mM with 100% DMSO as the starting concentration, and then serially dilute 3 times with a “9+0” concentration in 96-well dilution plate (Cat #P-05525, Labcyte);
(§4) b) Dilute compound solution thereof to 1:100 in medium to prepare 10-fold working solution;
(§5) a) Centrifuge the growth cells in logarithmic phase at 1000 rpm for 5 minutes, resuspend the cells in culture medium, and then count the cells;
(§6) b) Inoculate the cells into a 96-well cell culture plate with a density of 2000 cells/well;
(§7) a) The compound prepared in Step 2 was added to a cell plate with 15 μL per well at final concentrations of 1000, 333, 111.1, 37, 12.3, 4.1, 1.4, 0.5, 0.2, and 0 nM. The final concentration of DMSO was 0.1%. The blank control well is with medium (0.1% DMSO).
(§8) b) Incubate cells in an incubatorother 72 hours;
(§9) a) Take out the 96-well cell culture plate and add 50 μl CTG reagent (CellTiter Glo kit, promega, Cat #G7573);
(§10) b) Shake the plate for 2 minutes and let cool at room temperature for 10 minutes,
(§11) c) Read luminous signal value with Perkin Elmer reader.
(§12) Analysis of Experimental Data
(§13) The data were analyzed by GraphPad Prism 6.0 software to obtain the fitting curve of compound activity.
(§14) Fining compound IC50 from nonlinear regression equation:
(§15) Y=Min+(Max−Min)/(1+10^((LogIC50−X)*slope));
(§16) X: Logarithm of compound concentration; Y: luminous signal
(§17) As illustrated in examples, IC50 value is within the following range for the compound of the present invention: “A” represents “IC50≤50 nM”; “B” represents “50 nM<IC50<100 nM”.

Ba/F3-Δ19del/T790M/C797S = Ba/F3-Δ19del/T790M/C797S (Homo sapiens, UniProt P00533, T790M/C797S, cells depend on it, form not given); test: Ba/F3-Δ19del/T790M/C797S cell proliferation assay (CellTiter Glo, 72 h); type: cell-based; conditions: CTG, read-out: BaF3 Δ19del/T790M/C797S IC50
Procedure: as §1, §2, §3, §4, §5, §6, §7, §8, §9, §10, §11, §12, §13, §14, §15, §16, §17

[1] = tested on: A431 EGFR wild-type cell line; test: A431 EGFR wild-type cell proliferation assay (CellTiter Glo, 72 h); type: cell-based; conditions: Homo sapiens, A-431, CTG, read-out: A431 EGFR WT IC50
Procedure: as §1, §2, §3, §4, §5, §6, §7, §8, §9, §10, §11, §12, §13, §14, §15, §16, §17

Chain of Ba/F3-L858R/T790M/C797S (P00533 whole entry T790M/C797S/L858R): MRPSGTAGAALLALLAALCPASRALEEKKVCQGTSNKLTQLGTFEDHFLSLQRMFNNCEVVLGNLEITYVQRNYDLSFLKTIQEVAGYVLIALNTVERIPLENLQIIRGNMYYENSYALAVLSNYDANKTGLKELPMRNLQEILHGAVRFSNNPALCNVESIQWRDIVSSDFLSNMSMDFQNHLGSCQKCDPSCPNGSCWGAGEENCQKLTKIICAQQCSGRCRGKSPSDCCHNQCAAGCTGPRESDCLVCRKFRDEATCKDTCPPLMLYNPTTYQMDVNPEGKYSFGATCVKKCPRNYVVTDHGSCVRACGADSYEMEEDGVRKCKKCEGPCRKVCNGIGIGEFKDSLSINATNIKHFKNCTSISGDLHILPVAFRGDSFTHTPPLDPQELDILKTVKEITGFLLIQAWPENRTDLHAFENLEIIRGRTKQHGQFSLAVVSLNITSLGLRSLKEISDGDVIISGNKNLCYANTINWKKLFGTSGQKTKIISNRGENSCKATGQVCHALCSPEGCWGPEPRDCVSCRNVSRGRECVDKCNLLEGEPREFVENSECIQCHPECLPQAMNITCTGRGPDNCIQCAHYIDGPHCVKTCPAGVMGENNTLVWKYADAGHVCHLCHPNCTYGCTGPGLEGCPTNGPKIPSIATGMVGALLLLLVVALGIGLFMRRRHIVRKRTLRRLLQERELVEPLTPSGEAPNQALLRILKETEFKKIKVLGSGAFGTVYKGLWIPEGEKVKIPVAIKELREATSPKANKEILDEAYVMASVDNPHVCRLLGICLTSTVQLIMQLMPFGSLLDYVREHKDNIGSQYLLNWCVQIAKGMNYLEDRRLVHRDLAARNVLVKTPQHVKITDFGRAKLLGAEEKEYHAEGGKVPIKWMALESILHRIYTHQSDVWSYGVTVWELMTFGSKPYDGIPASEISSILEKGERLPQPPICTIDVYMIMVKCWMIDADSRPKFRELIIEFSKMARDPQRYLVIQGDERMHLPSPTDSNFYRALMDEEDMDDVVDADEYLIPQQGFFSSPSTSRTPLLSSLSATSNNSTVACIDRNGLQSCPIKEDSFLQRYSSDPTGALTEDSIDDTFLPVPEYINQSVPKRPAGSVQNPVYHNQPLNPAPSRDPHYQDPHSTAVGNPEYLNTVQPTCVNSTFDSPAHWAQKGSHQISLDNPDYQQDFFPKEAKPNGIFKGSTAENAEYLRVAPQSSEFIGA
Chain of EGFR Δ19del/T790M/C797S (P00533 with tags, fused parts or gaps DEL746-750/T790M/C797S, form open): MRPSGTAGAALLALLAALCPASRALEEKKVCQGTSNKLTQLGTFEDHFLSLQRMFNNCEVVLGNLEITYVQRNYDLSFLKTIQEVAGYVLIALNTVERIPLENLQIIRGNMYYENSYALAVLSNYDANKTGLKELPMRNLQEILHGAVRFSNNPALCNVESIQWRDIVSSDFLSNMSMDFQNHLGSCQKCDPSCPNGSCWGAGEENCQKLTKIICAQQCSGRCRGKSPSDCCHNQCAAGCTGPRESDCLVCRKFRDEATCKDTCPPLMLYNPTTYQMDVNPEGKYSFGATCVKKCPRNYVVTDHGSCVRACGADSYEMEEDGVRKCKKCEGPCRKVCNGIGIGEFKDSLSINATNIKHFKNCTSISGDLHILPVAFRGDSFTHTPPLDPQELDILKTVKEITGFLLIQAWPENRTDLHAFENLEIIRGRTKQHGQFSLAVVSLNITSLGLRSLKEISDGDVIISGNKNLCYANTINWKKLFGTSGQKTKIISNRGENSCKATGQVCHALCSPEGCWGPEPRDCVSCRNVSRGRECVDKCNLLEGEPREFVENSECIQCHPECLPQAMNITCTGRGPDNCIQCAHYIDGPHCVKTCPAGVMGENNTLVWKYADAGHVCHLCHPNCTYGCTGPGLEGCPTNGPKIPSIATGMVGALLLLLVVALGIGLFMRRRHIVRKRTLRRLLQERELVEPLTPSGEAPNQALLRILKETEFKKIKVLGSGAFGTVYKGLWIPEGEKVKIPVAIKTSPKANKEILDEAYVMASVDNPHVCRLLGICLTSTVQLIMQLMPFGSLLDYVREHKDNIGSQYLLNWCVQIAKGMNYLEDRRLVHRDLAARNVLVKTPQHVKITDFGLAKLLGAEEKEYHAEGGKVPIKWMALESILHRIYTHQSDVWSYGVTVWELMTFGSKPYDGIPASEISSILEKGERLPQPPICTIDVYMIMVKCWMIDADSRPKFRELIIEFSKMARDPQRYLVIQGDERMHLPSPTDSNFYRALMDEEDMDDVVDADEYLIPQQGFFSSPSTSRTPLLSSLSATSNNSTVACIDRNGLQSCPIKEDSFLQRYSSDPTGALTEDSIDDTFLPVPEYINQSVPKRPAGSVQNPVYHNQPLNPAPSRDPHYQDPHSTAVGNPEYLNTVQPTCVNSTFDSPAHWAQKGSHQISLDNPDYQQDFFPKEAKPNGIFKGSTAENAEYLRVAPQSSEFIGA
Chain of Ba/F3-Δ19del/T790M/C797S (P00533 with tags, fused parts or gaps DEL746-750/T790M/C797S, form open): as above

| Structure (SMILES) | IC50 (EGFR Δ19del/T790M/C797S; class symbols) | GI50 (Ba/F3-L858R/T790M/C797S; class symbols) | GI50 (Ba/F3-Δ19del/T790M/C797S; class symbols) | IC50 (EGFR Δ19del/T790M/C797S; numeric values) | GI50 (Ba/F3-L858R/T790M/C797S; numeric values) | GI50 (Ba/F3-Δ19del/T790M/C797S; numeric values) | IC50 [1] |
| --- | --- | --- | --- | --- | --- | --- | --- |
| COc1cc(N2CCOCC2)c(-c2cnn(C)c2)cc1Nc1ncc(Br)c(Nc2ccc3nccnc3c2P(C)(C)=O)n1 [Compound 16] | ≤ 1 nM | ≤ 50 nM | ≤ 50 nM |  |  |  |  |
| COc1cc(N2CCN3CCCCC3C2)c(-c2cnn(C)c2)cc1Nc1ncc(Cl)c(Nc2ccc3nccnc3c2P(C)(C)=O)n1 (stereo in doubt) [Compound 18] |  |  |  | 0.2 nM | 8.2 nM | 6.7 nM | 112 nM |
| COc1cc(N2CCN3CCCC[C@@H]3C2)c(-c2cnn(C)c2)cc1Nc1ncc(Cl)c(Nc2ccc(C)c(C)c2P(C)(C)=O)n1 [Compound 8, (R)-(6-((5-chloro-2-((2-methoxy-5-(1-methyl-1H-pyrazol-4-yl)-4-(octahydro-2hydro-Pyridine[1,2-a]pyrazine-2-yl)phenyl)amino)pyrimidine-4-yl)amino)-2,3-dimethylphenyl)dimethylphosphine oxide] | ≤ 1 nM | ≤ 50 nM | ≤ 50 nM |  |  |  |  |
| COc1cc(N2CCC(N3CCCCC3)CC2)c(-c2cnn(C)c2)cc1Nc1ncc(Br)c(Nc2ccc(C3CC3)c(C)c2P(C)(C)=O)n1 [Compound 13] | ≤ 1 nM | ≤ 50 nM | ≤ 50 nM |  |  |  |  |
| COc1cc(N2CCC(N3CCN(C)CC3)CC2)c(-c2cnn(C(F)F)c2)cc1Nc1ncc(Br)c(Nc2ccc3nccnc3c2P(C)(C)=O)n1 [Compound 17] |  |  |  | 0.3 nM | 3.8 nM | 3.5 nM | 120 nM |
| COc1cc(N2CCC(N(C)C)CC2)c(-c2cnn(C)c2)cc1Nc1ncc(Cl)c(Nc2ccc(C)c(C)c2P(C)(C)=O)n1 [Compound 4, (6-((5-Chloro-2-((4-(4-(dimethylamino)piperidine-1-yl)-2-methoxy-5-(1-methyl-1H-pyrazole-4-yl)phenyl)amino)pyrimidine-4-yl)amino)-2,3-dimethylphenyl)dimethylphosphine oxide] | ≤ 1 nM |  |  |  | 14.9 nM | 10.2 nM | 192 nM |
| CCn1cc(-c2cc(Nc3ncc(Br)c(Nc4ccc5nccnc5c4P(C)(C)=O)n3)c(OC)cc2N2CCC(N3CCN(C)CC3)CC2)cn1 [Compound 19] |  |  |  | 0.3 nM | 1.3 nM | 1 nM | 135 nM |
| COc1cc(N2CCC3(CC2)CN(C)C3)c(-c2cnn(C)c2)cc1Nc1ncc(Cl)c(Nc2ccc(C)c(C)c2P(C)(C)=O)n1 [Compound 7] | 1 to 100 nM | 50 to 100 nM | 50 to 100 nM |  |  |  |  |
| COc1cc(N2CCC(N3CCCC3)CC2)c(-c2cnn(C)c2)cc1Nc1ncc(Cl)c(Nc2ccc(C)c(C)c2P(C)(C)=O)n1 [Compound 6] | ≤ 1 nM | ≤ 50 nM | ≤ 50 nM |  |  |  |  |
| CCn1cc(-c2cc(Nc3nccc(Nc4ccc(C)c(C)c4P(C)(C)=O)n3)c(OC)cc2N2CCOCC2)cn1 [Compound 23, (6-(2-(5-((1-Ethyl-1hydro-pyrazol-4-yl)-2-methoxy-4-morpholinophenyl)amino)pyrimidine-4-amino)-2,3dimethylphenyl) dimethylphosphine oxide] |  |  |  | 1.4 nM |  |  |  |
| COc1cc(N2CCC(N3CCN(C)CC3)CC2)c(-c2cnn(C)c2)cc1Nc1ncc(Br)c(Nc2ccc3nccnc3c2P(C)(C)=O)n1 [Compound 10] | ≤ 1 nM | ≤ 50 nM | ≤ 50 nM |  |  |  |  |

Second part, the molecule after the results:

| IC50 (EGFR Δ19del/T790M/C797S; class symbols) | GI50 (Ba/F3-L858R/T790M/C797S; class symbols) | GI50 (Ba/F3-Δ19del/T790M/C797S; class symbols) | IC50 (EGFR Δ19del/T790M/C797S; numeric values) | GI50 (Ba/F3-L858R/T790M/C797S; numeric values) | GI50 (Ba/F3-Δ19del/T790M/C797S; numeric values) | IC50 [1] | Structure (SMILES) |
| --- | --- | --- | --- | --- | --- | --- | --- |
| ≤ 1 nM | ≤ 50 nM | ≤ 50 nM |  |  |  |  | COc1cc(N2CCC(N3CCN(C)CC3)CC2)c(-c2cnn(C)c2)cc1Nc1ncc(Br)c(Nc2ccc(C3CC3)c(C)c2P(C)(C)=O)n1 [Compound 12] |
|  |  |  | 0.3 nM | 60.4 nM | 60.4 nM | 571 nM | COc1cc(N2CCC(N(C)C)CC2)c(-c2cn[nH]c2)cc1Nc1ncc(Cl)c(Nc2ccc3nccnc3c2P(C)(C)=O)n1 [Compound 3, (6-((5-Chloro-2-((4-(4-(dimethylamino)piperidin-1-yl)-2-methoxy-5-(1H-pyrazol-4-yl)benzene)amino)pyrimidin-4-yl)amino)quinoxalin-5-yl)dimethylphosphine oxide] |
| ≤ 1 nM | ≤ 50 nM | ≤ 50 nM |  |  |  |  | COc1cc(N2CCC(N3CCN(C)CC3)CC2)c(-c2cnn(C)c2)cc1Nc1ncc(Br)c(Nc2ccc(C)c(C)c2P(C)(C)=O)n1 [Compound 14, (6-((5-Bromo-2-((2-methoxy-5-(1-methyl-1h-pyrazol-4-yl)-4-(4-(4-methylpiperazine-1-yl)piperidine-1-yl)phenyl)amino)pyrimidine-4-yl)amino)-2,3-dimethylphenyl)dimethylphosphine oxide] |
| ≤ 1 nM | ≤ 50 nM | ≤ 50 nM |  |  |  |  | COc1cc(N2CCC(N3CCCCC3)CC2)c(-c2cnn(C)c2)cc1Nc1ncc(Br)c(Nc2ccc(C)c(C)c2P(C)(C)=O)n1 [Compound 15, (6-((2-((4-([1,4′-Bipiperidine]-1′-yl)-2-methoxy-5-(1-methyl-1H-pyrazole-4-yl)phenyl)amino)-5-bromopyrimidine-4-yl)amino)-2,3-dimethylphenyl)dimethylphosphine oxide] |
| ≤ 1 nM | ≤ 50 nM | ≤ 50 nM |  |  |  |  | COc1cc(N2CCC(N3CCCCC3)CC2)c(-c2cnn(C)c2)cc1Nc1ncc(Br)c(Nc2ccc3nccnc3c2P(C)(C)=O)n1 [Compound 11, (6-((2-((4-([1,4′-Bipiperidine]-1′-yl)-2-methoxy-5-(1-methyl-1H-pyrazole-4-yl)phenyl)amino)-5-bromopyrimidin-4-yl)amino)quinoxalin-5-yl)dimethylphosphine oxide] |
|  |  |  | 1.3 nM | 8.7 nM |  | 1170 nM | COc1cc(N2CCN(C3CCCC3)CC2)c(-c2cnn(C)c2)cc1Nc1ncc(Br)c(Nc2ccc3nc(C4CC4)ccc3c2P(C)(C)=O)n1 [Compound 27, (6-((5-Bromo-2-((4-(4-cyclopentylpiperazine-1-yl)-2-methoxy-5-(1-methyl-1H-pyrazole-4-Yl)phenyl)amino)pyrimidin-4-yl)amino)-2-cyclopropylquinolin-5-yl)dimethylphosphine oxide] |
|  |  |  | 17 nM |  |  |  | CCn1cc(-c2cc(Nc3ncc(Br)c(Nc4ccc5nc(C6CC6)ccc5c4P(C)(C)=O)n3)c(OC)cc2N2CCOCC2)cn1 [Compound 24] |
